Patent publication US7728043B2, “Methods for treatment of beta-amyloid protein-induced ocular disease” (priority 1999, dated 2010)

Columns and labels:
[1] = tested on: HUVEC cells; assay: MTT reduction assay, βA peptide-induced toxicity, HUVEC cells; assay type: cell-based, human
Procedure: (§1) The degree of βA insult was measured by 3-[4,5-dimethylthiazol-2-yl]-2,5-diphenyltetrazolium bromide (MTT) reduction assay. […] The detection of cell growth or cell death can be determined by observing the conversion of MTT to the colored product, MTT formazan, the concentration of which can be measured […] at 550 nm.
(§2) Cells were incubated in MTT solution (5 mg/ml) at 37° C. for 2 hours. During this time, cells were observed under a microscope every 15 min. Cells were incubated in Lysing buffer (100 μl) overnight at 37° C. Colorimetric determination of MTT reduction was made at 550 nm.
(§3) PC12 rat pheochromocytoma and IMR32 human neuroblastoma cells were obtained from the American Type Culture Collection (ATCC). HUVEC normal umbilical human vein endothelial cells were obtained from Clonetics (San Diego, Calif.). Cells were routinely cultured on a tissue culture plate (Corning, N.Y., N.Y.). PC12 cells were grown in high glucose Dulbecco's Modified Eagle Medium (DMEM), 10% horse serum, 5% fetal calf serum, and 1% penicillin/streptomycin. IMR32 cells were grown in 90% DMEM and 10% fetal calf serum with 1% penicillin/streptomycin. HUVEC cells were grown in EGM-2 Bullet Kit (Clonetics, San Diego, Calif.).

[2] = tested on: PC12 cells; assay: MTT reduction assay, βA peptide-induced toxicity, PC12 cells; assay type: cell-based, rat; conditions: for Protection of PC12 cells from βA peptide insults (control study): even at 200 μg/ml, βA peptide(25-35) and βA peptide(1-42); for ED50 of βA peptide toxicity to PC12 cells: peptide alone, collagen-coated 96-well plates
Procedure: as §1, §2, §3
PC12 cells were cultured routinely on polystyrene-coated Corning tissue culture plates. […] The 96-well plates were coated with rat tail collagen (Boehringer Mannheim) in order to promote uniform PC12 cell attachment and growth.

[3] = tested on: IMR32 cells; assay: MTT reduction assay, βA peptide-induced toxicity, IMR32 cells; assay type: cell-based, human; conditions: for ED50 of βA peptide toxicity to IMR32 cells: peptide alone
Procedure: as §1, §2, §3

[4] = tested on: cells treated with βA peptide; assay: Protection of cells from βA peptide insult, statements in words (MTT assay, cells not singled out); assay type: cell-based; conditions: MTT reduction assay; PC12, IMR32, HUVEC cells where named in the sentence
Procedure: as §1, §2

[5] = Antioxidant assay, scavenging of DPPH free radicals; conditions: for Antioxidant IC50: Table 2, synthesized curcuminoids, DPPH; for Antioxidant activity (DPPH free radical scavenging), in words: optical density change of DPPH radicals at 515 nm
Procedure: Kim et al., Neurosci Lett 303, 57 (2001) and Barik et al., Free Radic Biol Med 39, 811 (2005).
Using an antioxidant assay, the antioxidant potency of the compounds of the invention was evaluated. 1,1-Diphenyl-2-picrylhydrazyl (DPPH) is known to generate stable free radicals in aqueous and ethanolic solutions. The ability of the compounds of the invention to scavenge these free radicals was measured by observing the optical density change of DPPH radicals at 515 nm. Kim et al., Neurosci Lett 303, 57 (2001) and Barik et al., Free Radic Biol Med 39, 811 (2005).
The samples were prepared in various concentrations (200, 20, 2.0, and 0.2 μg/ml) by serial dilution of a stock solution (5 mg/ml) and were tested by the following procedure. Reaction mixtures containing test compounds (dissolved in DMSO) and 300 μM DPPH ethanolic solution in 96-well microtiter plates were incubated at 37° C. for 30 min. and absorbance was measured at 515 nm. Percent inhibition by sample treatment was determined by comparison with a DMSO-treated […] control group. IC50 values were determined from percent inhibition by sample. IC50 values denote the concentration of the tested compound that was required to scavenge 50% of the DPPH free radicals.

[6] = Table 2, synthesized curcuminoids
[7] = Table 3, ginger-derived natural product compounds

CC(C)(C)[C@]1(O)CC2OC(=O)CC23C(=O)OC2OC(=O)[C@H](O)C231 (single isomer, unassigned; (-)) [(−)-Bilobalide, reference compound]
Anti-βA peptide(1-42) ED50 HUVEC ([1]; Table 4, ginkgo compounds): toxic | Anti-βA peptide(25-35) ED50 HUVEC ([1]; Table 4, ginkgo compounds): toxic | Anti-βA peptide(1-42) ED50 PC12 ([2]; Table 4, ginkgo compounds): toxic | Anti-βA peptide(25-35) ED50 PC12 ([2]; Table 4, ginkgo compounds): toxic | Anti-βA peptide(1-42) ED50 IMR32 ([3]; Table 4, ginkgo compounds): toxic | Anti-βA peptide(25-35) ED50 IMR32 ([3]; Table 4, ginkgo compounds): toxic | Protection of cells from βA peptide-induced toxicity, in words [4]: do not possess biological activity

O=C(CCc1ccccc1)CC(=O)CCc1ccc(O)cc1 [Compound 7]
Antioxidant IC50 [5]: >200 µg/mL | Anti-βA peptide(1-42) ED50 PC12 [2, 6]: toxic | Anti-βA peptide(25-35) ED50 PC12 [2, 6]: toxic | Anti-βA peptide(1-42) ED50 IMR32 [3, 6]: toxic | Anti-βA peptide(25-35) ED50 IMR32 [3, 6]: toxic | Protection of cells from βA peptide-induced toxicity, in words [4]: cytotoxic

O=C(C=C(O)C=Cc1ccccc1)CCc1ccc(O)cc1 [Compound 8]
Antioxidant IC50 [5]: >200 µg/mL | Anti-βA peptide(1-42) ED50 PC12 [2, 6]: toxic | Anti-βA peptide(25-35) ED50 PC12 [2, 6]: toxic | Anti-βA peptide(1-42) ED50 IMR32 [3, 6]: toxic | Anti-βA peptide(25-35) ED50 IMR32 [3, 6]: toxic | Protection of cells from βA peptide-induced toxicity, in words [4]: cytotoxic

O=C(CCc1ccc(O)cc1)CC(=O)CCc1ccc(O)cc1 [Compound 9]
Antioxidant IC50 [5]: >200 µg/mL | Anti-βA peptide(1-42) ED50 PC12 [2, 6]: 9.0 µg/mL | Anti-βA peptide(25-35) ED50 PC12 [2, 6]: 10.0 µg/mL | Anti-βA peptide(1-42) ED50 IMR32 [3, 6]: 11.0 µg/mL | Anti-βA peptide(25-35) ED50 IMR32 [3, 6]: 12.0 µg/mL | Protection of cells from βA peptide-induced toxicity, in words [4]: protected

COc1ccc(/C=C/C(=O)CC(=O)CCc2ccc(O)cc2)cc1 [Compound 10]
Antioxidant IC50 [5]: >200 µg/mL | Anti-βA peptide(1-42) ED50 PC12 [2, 6]: toxic | Anti-βA peptide(25-35) ED50 PC12 [2, 6]: toxic | Anti-βA peptide(1-42) ED50 IMR32 [3, 6]: toxic | Anti-βA peptide(25-35) ED50 IMR32 [3, 6]: toxic | Protection of cells from βA peptide-induced toxicity, in words [4]: cytotoxic

CCC/C=C/C(=O)CCc1ccc(O)c(OC)c1 [Compound 11]
Anti-βA peptide(1-42) ED50 HUVEC [1, 7]: 20 µg/mL | Anti-βA peptide(25-35) ED50 HUVEC [1, 7]: 20 µg/mL | Antioxidant activity (DPPH free radical scavenging), in words [5]: None of these compounds exhibited significant antioxidant activity | Anti-βA peptide(1-42) ED50 PC12 [2, 7]: 12 µg/mL | Anti-βA peptide(25-35) ED50 PC12 [2, 7]: 15 µg/mL | Anti-βA peptide(25-35) ED50 IMR32 [3, 7]: 15 µg/mL | Protection of cells from βA peptide-induced toxicity, in words [4]: effectively protected

CCCCC/C=C/C(=O)CCc1ccc(O)c(OC)c1 [Compound 12]
Anti-βA peptide(1-42) ED50 HUVEC [1, 7]: 18 µg/mL | Anti-βA peptide(25-35) ED50 HUVEC [1, 7]: 20 µg/mL | Antioxidant activity (DPPH free radical scavenging), in words [5]: None of these compounds exhibited significant antioxidant activity | Anti-βA peptide(1-42) ED50 PC12 [2, 7]: 10 µg/mL | Anti-βA peptide(25-35) ED50 PC12 [2, 7]: 9.0 µg/mL | Anti-βA peptide(25-35) ED50 IMR32 [3, 7]: 8.0 µg/mL | Protection of cells from βA peptide-induced toxicity, in words [4]: effectively protected

CCCCCCCCCCC(=O)CCc1ccc(O)c(OC)c1 [Compound 45, [9]-dihydroshogaol]
Protection of cells from βA peptide-induced toxicity, in words [4]: effectively protected

CCCCCCCCC=CC(=O)CCc1ccc(O)cc1 [Compound 50, [9]-demethoxyshogaol]
Protection of cells from βA peptide-induced toxicity, in words [4]: effectively protected

C[C@@H]1C(=O)O[C@H]2C[C@@]34[C@H]5C[C@@H](C(C)(C)C)[C@]36[C@@H](OC(=O)[C@@H]6O)O[C@@]4(C(=O)O5)[C@]21O [Ginkgolide A, reference compound]
Anti-βA peptide(1-42) ED50 HUVEC ([1]; Table 4, ginkgo compounds): toxic | Anti-βA peptide(25-35) ED50 HUVEC ([1]; Table 4, ginkgo compounds): toxic | Anti-βA peptide(1-42) ED50 PC12 ([2]; Table 4, ginkgo compounds): toxic | Anti-βA peptide(25-35) ED50 PC12 ([2]; Table 4, ginkgo compounds): toxic | Anti-βA peptide(1-42) ED50 IMR32 ([3]; Table 4, ginkgo compounds): toxic | Anti-βA peptide(25-35) ED50 IMR32 ([3]; Table 4, ginkgo compounds): toxic | Protection of cells from βA peptide-induced toxicity, in words [4]: do not possess biological activity

CC1C(=O)OC2C(O)C34C5CC(C(C)(C)C)C36C(OC(=O)C6O)OC4(C(=O)O5)C12O (stereo not drawn) [Ginkgolide B, reference compound]
Anti-βA peptide(1-42) ED50 HUVEC ([1]; Table 4, ginkgo compounds): toxic | Anti-βA peptide(25-35) ED50 HUVEC ([1]; Table 4, ginkgo compounds): toxic | Anti-βA peptide(1-42) ED50 PC12 ([2]; Table 4, ginkgo compounds): toxic | Anti-βA peptide(25-35) ED50 PC12 ([2]; Table 4, ginkgo compounds): toxic | Anti-βA peptide(1-42) ED50 IMR32 ([3]; Table 4, ginkgo compounds): toxic | Anti-βA peptide(25-35) ED50 IMR32 ([3]; Table 4, ginkgo compounds): toxic | Protection of cells from βA peptide-induced toxicity, in words [4]: do not possess biological activity

O=c1c(O)c(-c2ccc(O)c(O)c2)oc2cc(O)cc(O)c12 [Quercetin, reference compound]
Anti-βA peptide(1-42) ED50 HUVEC ([1]; Table 4, ginkgo compounds): >20 µg/mL | Anti-βA peptide(25-35) ED50 HUVEC ([1]; Table 4, ginkgo compounds): >20 µg/mL | Anti-βA peptide(1-42) ED50 PC12 ([2]; Table 4, ginkgo compounds): >20 µg/mL | Anti-βA peptide(25-35) ED50 PC12 ([2]; Table 4, ginkgo compounds): >20 µg/mL | Anti-βA peptide(1-42) ED50 IMR32 ([3]; Table 4, ginkgo compounds): >20 µg/mL | Anti-βA peptide(25-35) ED50 IMR32 ([3]; Table 4, ginkgo compounds): >20 µg/mL | Protection of cells from βA peptide-induced toxicity, in words [4]: do not possess biological activity

CC1=C(/C=C/C(C)=C/C=C/C(C)=C/CO)C(C)(C)CCC1 [vitamin A, reference compound]
Protection of PC12 cells from βA peptide insults (control study) [2]: did not protect

O=C1O[C@H]([C@@H](O)CO)C(O)=C1O [vitamin C, reference compound]
Protection of PC12 cells from βA peptide insults (control study) [2]: did not protect

Cc1c(C)c2c(c(C)c1O)CCC(C)(CCCC(C)CCCC(C)CCCC(C)C)O2 (stereo not drawn) [vitamin E, reference compound]
Protection of PC12 cells from βA peptide insults (control study) [2]: did not protect

CC1=C(/C=C/C(C)=C/C=C/C(C)=C/C=C/C=C(C)/C=C/C=C(C)/C=C/C2=C(C)CCCC2(C)C)C(C)(C)CCC1 [β-carotene, reference compound]
Protection of PC12 cells from βA peptide insults (control study) [2]: did not protect

Ginkgolide C [reference compound]
Anti-βA peptide(1-42) ED50 HUVEC ([1]; Table 4, ginkgo compounds): toxic | Anti-βA peptide(25-35) ED50 HUVEC ([1]; Table 4, ginkgo compounds): toxic | Anti-βA peptide(1-42) ED50 PC12 ([2]; Table 4, ginkgo compounds): toxic | Anti-βA peptide(25-35) ED50 PC12 ([2]; Table 4, ginkgo compounds): toxic | Anti-βA peptide(1-42) ED50 IMR32 ([3]; Table 4, ginkgo compounds): toxic | Anti-βA peptide(25-35) ED50 IMR32 ([3]; Table 4, ginkgo compounds): toxic | Protection of cells from βA peptide-induced toxicity, in words [4]: do not possess biological activity

βA peptide (1-42): beta-amyloid peptide 1-42 used as the toxic insult [reference compound]
ED50 of βA peptide toxicity to PC12 cells [2]: 5.0 µg/mL | ED50 of βA peptide toxicity to IMR32 cells [3]: 6.0 µg/mL

βA peptide (25-35): beta-amyloid peptide fragment 25-35 used as the toxic insult (GSNKGAIIGLM; Amyloid-beta protein 42; UniProt P05067 696-706, looked up, fragment) [reference compound]
ED50 of βA peptide toxicity to HUVEC cells ([1]; peptide alone): 6.0 µg/mL | ED50 of βA peptide toxicity to PC12 cells [2]: 1.0 µg/mL | ED50 of βA peptide toxicity to IMR32 cells [3]: 3.0 µg/mL
